Experimental data taken from patent EP0706514B1, “COMPOUNDS AND METHODS FOR INHIBITION OF HIV AND RELATED VIRUSES” (MEDIVIR AB, priority 1993, dated 1995).
Where “and” joins values, the source holds several entries; their conditions need not be identical. Identical values can stand only once. Like-named read-outs stand apart in the source and are kept apart here. Each block holds one molecule with its values, some of them ahead of it.

Columns and labels:
recombinant HIV-RT = target: T1, recombinant HIV-RT (Human immunodeficiency virus type 1 group M subtype B, UniProt P04585); experiment: biochemical
T1 construct: recombinant HIV-RT (diluted in virus disruption buffer to give 200.000 cpm)
Experimental: 100 mM Tris-HCl pH 7.6, 100 mM KCl, 4 mM MgCl2, 4 mM DTT, 275 mg/ml BSA, 0.5 mg (rA)n(dT)12-18 and 0.3 mM ^3H-=dTTP (specific activity 18.000 cpm/mol). After 60 minutess of incubation 40 ml in duplicate were spotted on paper discs and washed in 5% TCA. After rinsing the paper discs in ethanol they were dried and counted in scintillation fluid.

HIV virus = experiment: Test A (XTT): reduction of virus-induced cytotoxicity in MT4 cells; type: cell-based; details: for % inhibition: Test A
Experimental: Tests A, B, C, and D (XTT)
MT4 cells in a medium of RPMI 1640, 5% FCS, penicillin/streptomycin are adjusted to 2x10^5 cells/ml and seeded into microplates (96 wells/plate) […] cell suspension/well giving 2x10^4 cells/well. The compound to be tested is made into a 10 mg/ml mixture in DMSO and stored at -20°C. […] Further dilutions to […] are made in medium containing microplates. Fifty […] of the 400, 40, and 4 mg/ml are transferred to the cell-containing microplates with a multi-channel pipette (final concentration: […]). Finally, […] of virus suspension is added to each well (with a repetitive "Eppendorf" multipipett). […] The plate is put into a plastic bag and incubated for six days in CO2 atmosphere. To each well in the plate is added […] of XTT ((2,3-bis[2-methoxy-4-nitro-5-sulfophenyl]-5-[(phenylamin o)carbonyl]-2H-tetrazolium hydroxide), (1 mg/ml 0.01-0.02 mM N-metyl-phenazonium methosulfate). After six hours of incubation in CO2 atmosphere the plates are covered with adhesive plate sealers and gently mixed on a vortex. Optical densities are determined at a wavelength of 450 nm and a reference wavelength of 650 nm. The percent reduction of cytotoxocity caused by the virus infection is calculated as follows: (OD450 compound - OD450 inf cells)/(OD450 uninf cells - OD450 inf cells)x 100 [formula]

[1] = Human immunodeficiency virus 1, MT4
[2] = Human immunodeficiency virus 1, MT4, Test A, MT4 cells, 0.1 µg/ml, read-out: % inhibition
[3] = Human immunodeficiency virus 1, MT4, Test A, MT4 cells, 1 µg/ml
[4] = Human immunodeficiency virus 1, MT4, Test A, MT4 cells, 100 µg/ml, read-out: % inhibition
[5] = IC50, Test I, several values in a cell are repeat determinations
[6] = Test I, several values in a cell are repeat determinations, read-out: IC50 (converted)

Structure (SMILES): O=C(Nc1ccc(Cl)cn1)N[C@H]1C[C@H]1c1c(F)cccc1F
IC50 (recombinant HIV-RT; IC50, Test I): 2.47 nM and 1.54 nM
% inhibition (recombinant HIV-RT; Test I, 0.001 µg/ml): 62%
inhibition at 0.001 µg/mL (recombinant HIV-RT; Test I, 0.001 µg/ml): 55%
% inhibition (recombinant HIV-RT; Test I, 0.01 µg/ml): 93%
inhibition at 0.01 µg/mL (recombinant HIV-RT; Test I, 0.01 µg/ml): 89%
inhibition at 0.1 µg/mL (recombinant HIV-RT; Test I, 0.1 µg/ml (column 4)): 98%
inhibition at 1 µg/mL (recombinant HIV-RT; Test I, 1 µg/ml): 100%
inhibition at 0.1 µg/mL (HIV virus; [1]): 100%
inhibition at 10 µg/mL (HIV virus; [1]): 100%
inhibition at 100 µg/mL (HIV virus; [1]): 100%
inhibition at 0.001 µg/mL (HIV virus; Human immunodeficiency virus 1, MT4, Test A, MT4 cells, 0.001 µg/ml): 7%
inhibition at 0.01 µg/mL (HIV virus; Human immunodeficiency virus 1, MT4, Test A, MT4 cells, 0.01 µg/ml): 80%
inhibition at 0.1 µg/mL (HIV virus; [2]): 82%
inhibition at 1 µg/mL (HIV virus; [3]): 86%
inhibition at 100 µg/mL (HIV virus; [4]): 3%
% inhibition (HIV virus; MT4 cells, 0.001 µg/ml): 8%
% inhibition (HIV virus; MT4 cells, 0.01 µg/ml): 81%
% inhibition (HIV virus; MT4 cells, 1 µg/ml): 90%

Structure (SMILES): CCOc1ccc(F)c(CCNC(=O)Nc2ccc(Br)cn2)c1Cl
IC50 (recombinant HIV-RT; IC50, Test I): 4.8 nM and 3.36 nM
% inhibition (recombinant HIV-RT; Test I, 0.001 µg/ml): 45%
inhibition at 0.001 µg/mL (recombinant HIV-RT; Test I, 0.001 µg/ml): 41%

Structure (SMILES): O=C(NCCc1c(F)cccc1F)Nc1ccc(Cl)cn1
inhibition at 0.1 µg/mL (HIV virus; [2]): 92%
inhibition at 1 µg/mL (HIV virus; [3]): 87%
inhibition at 10 µg/mL (HIV virus; Human immunodeficiency virus 1, MT4, Test A, MT4 cells, 10 µg/ml, read-out: % inhibition): 93%
inhibition at 100 µg/mL (HIV virus; [4]): 0%
% inhibition (HIV virus; MT4 cells, 0.001 µg/ml): 6%
% inhibition (HIV virus; MT4 cells, 0.01 µg/ml): 51% and 94%
% inhibition (HIV virus; MT4 cells, 1 µg/ml): 98%

Structure (SMILES): N#Cc1ccc(NC(=O)N[C@@H]2C[C@@H]2c2c(F)cccc2F)nc1 (racemic) [Example 26, (+,-)-N-(cis-2-(2,6-Difluorophenyl)-cyclopropyl)-N'-(5-cyanopyrid-2-yl)-urea]
IC50 (recombinant HIV-RT; [5]): 28.6 nM and 31.8 nM

Structure (SMILES): COCOc1c(C(C)=O)ccc(F)c1[C@H]1C[C@H]1NC(=O)Nc1ccc(Cl)cn1 (racemic) [Example 56, (+,-)-N-(cis-2-(5-Acetyl-2-fluoro-6-methoxymethoxyphenyl)cyclopropyl)-N'-(5-chloropyrid-2-yl)-urea]
IC50 (recombinant HIV-RT; [5]): 5.64 nM and 5.39 nM

Structure (SMILES): CC(=O)c1ccc(F)c([C@H]2C[C@H]2NC(=O)Nc2ccc(Cl)cn2)c1O (racemic) [Example 57, (+,-)-N-(cis-2-(5-Acetyl-2-fluoro-6-hydroxyphenyl)cyclopropyl)-N'-(5-chloropyrid-2-yl)-urea]
IC50 (recombinant HIV-RT; [5]): 1.1 nM (2×) and 1.37 nM

Structure (SMILES): O=C(Nc1ccc(Cl)cn1)N[C@@H]1C[C@@H]1c1c(F)ccc(O)c1Cl (racemic) [Example 64, (+, -)-N-(cis-2-(2-chloro-3-hydroxy-6-fluorophenyl)cyclopropyl)-N'-(5-chloropyrid-2-yl)-urea]
IC50 (recombinant HIV-RT; [5]): 3.65 nM

Structure (SMILES): N#Cc1ccc(NC(=O)N[C@@H]2C[C@@H]2c2c(F)cccc2Cl)nc1 (relative stereo) [Example 33, N-(cis-2-(2-chloro-6-fluorophenyl)cyclopropyl)-N'-(5-cyanopyrid-2-yl)-urea]
IC50 (recombinant HIV-RT; [5]): 1.51 nM

Structure (SMILES): O=C(Nc1ccc(Cl)cn1)N[C@@H]1C[C@@H]1c1c(F)cccc1Cl (relative stereo) [Example 34, N-(cis-2-(2-chloro-6-fluorophenyl)-cyclopropyl) -N'-(5-chloropyrid-2-yl)-urea]
IC50 (recombinant HIV-RT; [5]): 1.18 nM

IC50 (recombinant HIV-RT; [6]): 1.36 nM and 1.63 nM
Structure (SMILES): O=C(Nc1ccc(Br)cn1)NC1CC1c1c(F)cccc1F [Example 27, (1R,2S)-N-(cis-2-(2,6-Difluorophenyl)-cyclopropyl)-N'-5-bromopyrid-2-yl)-urea]

IC50 (recombinant HIV-RT; [6]): 108 nM
Structure (SMILES): CC(=O)c1ccc(F)c(CCNC(=O)Nc2ccc(Cl)cn2)c1O [Example 58]
